Measured values published in patent publication US20250002450A1, “CATIONIC STEROID COMPOUNDS, METHOD OF OBTAINING THEREOF, FORMULATIONS COMPRISING THEREOF AND THEIR USES” (UNIVERSIDADE DO PORTO, priority 2021, published 2025).
Values after ≈ are worked out from the molar mass of the structure shown. Like-named read-outs stand apart in the source and are kept apart here.

Legend:
C. albicans DSY294 = assay: Antifungal MIC/MLC (broth microdilution); type: cell-based, Candida albicans
Text: (§1) Twenty-three fungal strains were used in this study, including reference strains and clinical isolates of yeasts and filamentous fungi. Yeast strains included reference strains (ATCC—American Type Culture Collection and CECT—Colección Española de Cultivos Tipo) and clinical isolates: C. albicans ATCC 10231, Candida krusei ATCC 6258, C. albicans H37, C. albicans FF172, C. albicans FF176, C. albicans DSY294, C. albicans DSY296, C. glabrata DSY562, C. glabrata DSY565 and Cryptococcus neoformans CECT 1078. Filamentous fungi included Aspergillus fumigatus ATCC 240305, A. fumigatus C111, A. niger ATCC 16404, A. flavus F44, Fusarium solani FF125, F. oxysporum FF115, and dermatophytes Trichophyton rubrum FF5, T. mentagrophytes FF7, Microscoporum canis FF1 and Nannizzia gypsea FF3 (formerly Microsporum gypseum) and a species of genera Mucor, Lichetheimia and Scedosporium. Saprolegnia parasitica CBS 223.65, a reference strain of an oomycete fish pathogen, was also included. All microorganisms were kept in Sabouraud Dextrose Broth (SDB: BioMérieux, Marcy L'Etoile, France) plus glycerol (20%) at −80° C. The strains were kept in Sabouraud Dextrose Agar (SDA: BioMérieux, Marcy L'Etoile, France) slants and were sub-cultured in SDA before each test. S. parasitica was kept in Corn Meal Agar plates (CMA: BBL™ Corn Meal Agar, BD, Le Pont-de-Claix, France) and was sub-cultured in CMA before each experiment. C. albicans H37, was kindly provided by Cidilia Pina Vaz (CHSJ, Porto, Portugal) and C. albicans DSY294, C. albicans DSY296, C. glabrata DSY562, C. glabrata DSY565 were kindly provided by D. Sanglard (University of Lausanne, Switzerland). A stock solution of compound 1 (10 mg/mL), was prepared in dimethyl sulfoxide (DMSO 99%: Alfa Aesar, Kandel, Germany), kept at −20 degrees C., and freshly diluted in the appropriate culture media before each assay. In all experiments, in-test concentrations of DMSO were kept below 2%.
(§2) Antifungal activity was evaluated by determining the MIC of compound 1 by the broth microdilution method, according to CLSI guidelines (reference documents M27-A3 for yeasts and M38-A2 for filamentous fungi). Briefly, cell or spore suspensions were prepared in RPMI-1640 broth medium (Biochrom, Berlin, Germany) buffered with 3-(N-morpholino)propane sulfonic acid (MOPS) (Sigma-Aldrich, St. Louis, MO, USA) (henceforth referred to as RPMI) from fresh cultures of the different strains of fungi. For yeasts, the inoculum was adjusted to 0.5-2.5×10^3 CFU/mL. For filamentous fungi, the inoculum was adjusted to 1-3×10^3 CFU/mL for dermatophytes, and 0.4-5×10^4 CFU/mL for all other strains. […] Sterility and growth controls were included in each assay. The 96-well flat-bottomed untreated polystyrene microtiter plates which were incubated for 48 h at 35° C., with the exception of Lichetheimia spp. which was incubated at 25° C. for 48 h, and the dermatophyte strains, which incubated for 5-7 days at 25° C. […] The minimal lethal concentration (MLC) was determined by spreading 20 μL of culture collected from wells showing no visible growth on SDA plates. The MLC was determined as the lowest concentration showing complete growth inhibition after 48 h at 35 degrees C., 48 h at 25 degrees C.

C. albicans DSY296 = assay: Antifungal MIC/MLC (broth microdilution); type: cell-based, Candida albicans
Text: as §1, §2

C. albicans FF172 = assay: Antifungal MIC/MLC (broth microdilution); type: cell-based, Candida albicans
Text: as §1, §2

C. albicans FF176 = assay: Antifungal MIC/MLC (broth microdilution); type: cell-based, Candida albicans
Text: as §1, §2

C. albicans H37 = assay: Antifungal MIC/MLC (broth microdilution); type: cell-based, Candida albicans
Text: as §1, §2

P. aeruginosa ATCC 27853 = assay: Bacterial biofilm formation inhibition (crystal violet); type: cell-based, Pseudomonas aeruginosa; settings: 2×MIC and MIC, 24 h
Method: In an embodiment, the antibiofilm activity of compound 1 was performed as follows. Given its bactericidal effect, the impact of compound 1 on the biofilm formation of reference strains was studied.
The effect of compound 1 on bacterial biofilm formation was evaluated through quantification of total biomass, using the crystal violet method, as previously described ([FIG. 6]). […] A control with an appropriate concentration of DMSO, as well as a negative control (TSB alone) was included. Sterile 96-well flat-bottomed untreated polystyrene microtiter plates were used. After a 24 h incubation at 37 degrees C., the biofilms were heat-fixed for 1 h at 60 degrees C. and stained with 0.5% (v/v) crystal violet (Quimica Clinica Aplicada, Amposta, Spain) for 5 min. The stain was resolubilized with 33% (v/v) acetic acid (Acetic acid 100%, AppliChem, Darmstadt, Germany) and the biofilm biomass was quantified by measuring the absorbance of each sample at 570 nm in a microplate reader (Thermo Scientific Multiskan® EX, Thermo Fisher Scientific, Waltham, MA, USA). The background absorbance (TSB or TSB+1% glucose without inoculum) was subtracted from the absorbance of each sample and the data are presented as a percentage of control. Three independent assays were performed for reference strains, with triplicates for each experimental condition.

[1] = C. albicans DSY296, resistant to fluconazole or azoles
[2] = C. albicans FF176, resistant to fluconazole or azoles
[3] = C. albicans H37, resistant to fluconazole or azoles

SMILES | MIC (C. albicans DSY294; C. albicans DSY294) | MLC (C. albicans DSY294; C. albicans DSY294) | MIC (C. albicans DSY296; [1]) | MLC (C. albicans DSY296; [1]) | MIC (C. albicans FF172) | MLC (C. albicans FF172) | MIC (C. albicans FF176; [2]) | MLC (C. albicans FF176; [2]) | MIC (C. albicans H37; [3]) | MLC (C. albicans H37; [3]) | biofilm formation (in words) (P. aeruginosa ATCC 27853) | MIC (C. albicans DSY294; Candida albicans, DSY294) | MIC (C. albicans DSY296; Candida albicans, DSY296, read-out: MIC) | MIC (C. albicans FF172; Candida albicans, read-out: MIC) | MIC (C. albicans FF176; Candida albicans, FF176, read-out: MIC) | MIC (C. albicans H37; Candida albicans, H37, read-out: MIC)
C[C@H](CCC(=O)NCCN)[C@H]1CC[C@H]2[C@@H]3CC[C@@H]4C[C@H](O)CC[C@]4(C)[C@H]3C[C@H](O)[C@]12C [Compound 1, (R)—N-(2-aminoethyl)-4-((3R,5R,8R,9S,10S,12S,13R,14S,17R)-3,12-dihydroxy-10,13-dimethylhexadecahydro-1H-cyclopenta[a]phenanthren-17-yl) pentanamida] | 64 µg/mL (≈ 147 µM) | 64 µg/mL (≈ 147 µM) | 64 µg/mL (≈ 147 µM) | 64 µg/mL (≈ 147 µM) | 64 µg/mL (≈ 147 µM) | 64 µg/mL (≈ 147 µM) | 32 µg/mL (≈ 73.6 µM) | 32 µg/mL (≈ 73.6 µM) | 64 µg/mL (≈ 147 µM) | 64 µg/mL (≈ 147 µM) | significantly inhibited |  |  |  |  | 
OC(Cn1cncn1)(Cn1cncn1)c1ccc(F)cc1F [Fluconazole, reference compound] |  |  |  |  |  |  |  |  |  |  |  | 0.125 µg/mL (≈ 0.408 µM) | 64 µg/mL (≈ 209 µM) | 0.25 µg/mL (≈ 0.816 µM) | 32 µg/mL (≈ 104 µM) | ≥ 128 µg/mL
